The record followed here is a melting point compilation (Tetko et al.; mined from patent text by program, amines drawn as free bases though some values may be those of a salt).

In general, melting point refers to the temperature, or range, at which the solid turns liquid.

`Cc1nc(OCCCC2CO2)cc(-c2ccc(F)cc2)n1` (centres undefined) had a melting point of 63 to 64 °C.
For the molecule `CCC(Oc1ccc(CCC(=O)c2ccc(-c3ccc(C(F)(F)F)cc3)s2)c(Cl)c1Cl)C(=O)O` (centres undefined), the melting point was 169 to 171 °C.
For `O=C1Nc2ccc(Cl)c(Cl)c2C1c1ccccc1F` (centres undefined) the value was 244 to 247 °C; for `Cc1cc(Oc2ccc(Cl)c3c2CCCC3)c(Cl)cc1[N+](=O)[O-]`, 139 to 140 °C.
For `O=C(O)CCCCCOc1cc(-c2ccc(NC(=O)C(F)(F)F)cc2)cc(-c2ccccc2)n1` the value was 178 to 180 °C; for `CCOC(=O)c1cnn2c1nc(OCCCN(C)C)c1cnc3c(cnn3CC)c12`, 106 to 107 °C.
As for `CC1CCc2c(N3CCC(Cc4ccccc4)CC3)c(F)cc3c(=O)c(C(=O)O)cn1c23` (centres undefined), the figure is 230 to 232 °C; as for `OCc1cc(Cc2ccccc2)cs1`, 33 to 34 °C.
The molecule `CN(C=O)[C@@H]1CCCc2ccccc21` registered a melting point of 53 to 55 °C.
For `CCOC(=O)[C@H](Cc1ccc(NC(=O)c2c(Cl)cncc2Cl)cc1)NC1=CC(=O)C12CCCCC2` the value was 194 °C; for `CC(=O)OC1CCCC(n2cnc3cc(Cl)c(Cl)cc32)C1OC(C)=O` (centres undefined), 163 to 165 °C.
For `O=C(Nc1ccc2[nH]c(CNCC3CCOCC3)cc2c1)c1ccc(OCC2CC2)cc1` the value was 160 °C; for `CCc1nnc2c(Nc3ccc(Cl)cc3OC)nc3ccccc3n12`, 245 to 248 °C; for `COCOc1cc(F)ccc1-c1cc(-c2cccc(C(=O)OC)c2)c(C#N)c(NC(=O)c2ccco2)n1`, 160 to 162 °C.
As for `CCOC(=O)NS(=O)(=O)c1ccc(C(=O)C=Cc2cc(-c3cc4ccccc4[nH]3)c(OC)cc2OC)cc1`, the figure is 165 to 175 °C; as for `Cc1cc(-c2ccncc2)n2ncc(C(=O)c3ccccc3)c2n1`, 209 to 210 °C; as for `CC(c1oc2ccccc2c(=O)c1-c1cccc(F)c1)n1nc(-c2ccc(F)c(O)c2)c2c(N)ncnc21` (centres undefined), 241 to 244 °C.
Molecule `Nc1c(NC(=O)CCl)ccc2c1C(=O)c1ccccc1C2=O` gave a melting point of 193 to 194 °C.
With `BrCc1ccccc1-c1ccccc1CBr`, the melting point lay in the range of 85 to 88 °C.
As for `C#Cc1cc2nc(O)c(O)nc2cc1[N+](=O)[O-]`, the figure is more than 300 °C.
Molecule `CC(=O)c1coc2cc(NS(C)(=O)=O)c(Oc3ccccc3)cc2c1=O` gave a melting point of 175 to 177 °C.
As for `CC1CCC(C(C)C)C(OC(=O)[C@H]2C[C@@H]2C(=O)OC2CC(C)CCC2C(C)C)C1` (some centres undefined), the figure is 95 to 96 °C; as for `COC(=O)c1cc(OC)c(OS(=O)(=O)C(F)(F)F)cc1N`, 85 to 87 °C; as for `OCCN1CCN(CC2CNCCO2)CC1` (centres undefined), 73 to 75.5 °C.
For `CCOC(=O)c1cc(S(=O)C(F)(F)C(F)F)c(-c2ccc(Cl)cc2)[nH]1` (centres undefined) the value was 138 to 140 °C; for `CCCCCCCCCC1C=CC(Oc2ccc(C(=O)O)o2)=C2N=C3CCCCC3=C21` (centres undefined), 130 to 132 °C.
For `CCC1(CCCCN2CCN(c3ccc(F)c(Cl)c3)CC2)C(=O)Nc2ccccc21` (centres undefined) the value was 121 to 124 °C.
The molecule `Cc1nc(-c2cn(-c3cc(-c4ccc(C(F)(F)F)cc4)cc(C(F)(F)F)n3)cn2)sc1S(=O)(=O)NC(C)(C)C` showed a melting point of 260 °C.
As for `CC(C)(C)OC(=O)N[C@H](Cc1ccccc1)C(=O)N1CCC[C@H]1C(=O)NC(Cc1ccc(C#N)cc1)P(=O)(Oc1ccccc1)Oc1ccccc1` (some centres undefined), the figure is 85 to 90 °C.
As for `CC(C)(C)OC(=O)NC(COCc1ccccc1)C(=O)N1CCOCC1` (centres undefined), the figure is 87 to 88 °C; as for `CC(C)c1ccc(NC(=O)C2CCCc3ccccc32)cc1` (centres undefined), 163 °C; as for `CC(=O)N[C@@H](C)COc1cc2oc(-c3ccc(OC[C@H]4CC4(F)F)cc3)nc2cn1`, 205 °C.
For `C=C(C)COC1CC2C3CCC4=CC(=O)C=CC4(C)C3(F)C(O)CC2(C)C1(O)C(=O)CCl` (centres undefined) the value was 238 to 240 °C.
`CC(C)(C)OC(=O)CN1CCCNc2c1c(=O)c2=O` yielded a melting point of 167 to 168 °C.
As for `O=C(Nc1ccc(-c2cnc(-c3ccc(NC(=O)C4CCCCCC4)cc3)[nH]2)cc1)c1cccnc1`, the figure is 256 to 258 °C; as for `O=c1[nH]nc(CCc2cc(F)c(C(F)(F)F)c(F)c2)cc1O`, 211 to 212 °C.
For `Cc1ccc2c(c1)C(C(=O)Nc1c(C(C)C)cccc1C(C)C)c1ccccc1CO2` (centres undefined) the value was 166 to 167 °C.
For `COc1cc2c3ccc(OC)c(OC)c3n(C(=O)c3cccc([N+](=O)[O-])c3)c2cc1OC` the value was 187 to 191 °C.
Regarding `COc1cccc(-c2cc(N)c3cc(OC)ccc3n2)c1`, the melting point was 148 to 149 °C.
For `CCCC12CCC3C4CCCC=C4CCC3C1CCC2O` (centres undefined) the value was 115 to 119 °C; for `CSc1ncc2ccc(N)nc2n1`, more than 250 °C; for `CCOc1c(C(F)(F)F)cc([N+](=O)[O-])c(Nc2ncc(C(F)(F)F)cc2Cl)c1[N+](=O)[O-]`, 106 to 108 °C.
`CCCCc1nc(=O)n2nc(-c3ccccc3)cc2[nH]1`: the melting point was found to be 234 °C.
As for `COC(=O)Cc1cc(Br)c(Sc2ccc(O)c(Cc3ccc(Cl)nn3)c2)c(Br)c1`, the figure is 133 to 135 °C; as for `CCC[C@H]1CC[C@H](c2ncc(C(=O)O)cn2)CC1`, 184 to 186 °C; as for `COc1ccccc1-c1noc2ccc([N+](=O)[O-])cc12`, 170 to 171 °C.
For `CCc1cc2c(Cl)ccc(-n3c(=O)cc(C(F)(F)F)n(C)c3=O)c2o1` the value was 159 to 160 °C; for `O=C(CCCI)ON1C(=O)CCC1=O`, 86 to 87 °C.
As for `CCOC(=O)Nc1ccc(Br)cc1F`, the figure is 72 to 73 °C; as for `COc1ccc(S(=O)(=O)N(c2ccc(Cl)cc2Cc2c(F)cccc2F)C(C)CO)cc1OC` (centres undefined), 169 °C; as for `CCCc1c(OCC(O)CNc2cccc(N)c2C#N)ccc(C(C)=O)c1O` (centres undefined), 111 to 114 °C.
`NC(=S)NN1CCOCC1` showed a melting point of 168 °C.
As for `CCC(=O)NC1=NN(c2ccccc2)C(c2ccc(C)cc2)C1` (centres undefined), the figure is 124 to 125 °C; as for `OC1CSC(Oc2ccc(-n3ccnc3)cc2)C(O)C1O` (centres undefined), 180 °C.
For `COc1cc(C(O)CS(C)(=O)=O)cc(OC)c1N(C)C` (centres undefined) the value was 147 to 148 °C; for `CCCc1cc2c(cc1O)C(C)(C)CCC2(C)C`, 96 to 97 °C.
As for `Cc1cc(OCc2coc(/C=C/c3ccc(OC(F)(F)F)cc3)n2)ccc1CCCCc1cn(C(c2ccccc2)(c2ccccc2)c2ccccc2)nn1`, the figure is 135 to 136 °C.
`Nc1ncccc1C(=O)NCC1CCN(C[C@H]2COc3cccc(C(F)(F)F)c3O2)CC1` showed a melting point of 101 to 103 °C.
For `COC(=O)c1c(NC(C)=O)sc2c1CCC(c1ccccc1)C2` (centres undefined) the value was 116 to 117 °C.
As for `COC(=N)c1ccc(-c2ccc([N+](=O)[O-])cc2)o1`, the figure is 184 to 188 °C; as for `COc1cc2c(cc1O)CCN(C(=O)c1ccc(OC)c(OC)c1)C2`, 132 to 133 °C.
For `Cc1cc(OCC2CO2)c2cc(C(=O)N(C)C)[nH]c2c1` (centres undefined) the value was 197 to 204 °C; for `CCCCCCC(=N)NC(=S)Nc1cccc(C(F)(F)F)c1`, 105 to 107 °C; for `COc1cc2c(CC(=O)O)c(C)n(C(=O)c3ccccc3)c2cc1F`, 118 to 120 °C.
Consider `Cc1cccc2c1C(=O)C1(CC1)S2`, for which the melting point amounted to 128 °C.
As for `COC(=O)NN=Cc1cnc2ccccc2n1`, the figure is 242 to 244 °C.
For `CCCCCC(=O)OCn1cnc2c1c(=O)n(C)c(=O)n2C` the value was 67 to 72 °C.
As for `Cc1c(C)c(N2Cc3ccccc3C2)c(C)c2c1OC(C)(C)C2`, the figure is 161 to 163 °C; as for `OC(CCCl)COc1cccc(C(F)(F)F)c1` (centres undefined), 50 to 52 °C.
For the molecule `O=C(CCCCc1ccccc1)Nc1ccc2c(c1O)C(=O)CC2`, the melting point was 119 to 121 °C.
Molecule `CN1Cc2c(-c3noc(C4CC4)n3)ncn2-c2cccc(Cl)c2C1=O` gave a melting point of 165 to 169 °C.
Consider `CCN(CC)CCNC(=O)c1cc(Cl)c(N)cc1OCC(=O)OC`, for which the melting point is 92 to 94 °C.
For `CCOC(=O)c1c(OCC)nsc1NC(=O)N(CC)CC` the value was 77 to 80 °C.
`COc1ccccc1C=C1NC(=S)NC1=O` displayed a melting point of 234 to 235 °C.
As for `CN(C)c1ccccc1CS(=O)(=O)c1nccn1-c1ccncc1`, the figure is 132 to 135 °C; as for `NS(=O)(=O)c1ccc(NC(=O)C(=O)N2CCC(Cc3ccccc3)CC2)cc1`, 184 to 187 °C.
As for `COc1cc(OC(C)C)ccc1/C=C/c1cc(/C=C/c2ccc3cc[nH]c3c2)n[nH]1`, the figure is 107 to 113 °C.
`O=C1CCC2CC(c3ccccc3)c3cccc1c32` (centres undefined) yielded a melting point of 99 °C.
As for `Cc1nc2scc(C)n2c(=O)c1CCN1CCC(c2c[nH]c3ccccc23)CC1`, the figure is 275 °C.
For `COc1cc(C(C)=O)cc(OC)c1OCCCC(=O)O` the value was 122 to 124 °C.
For `CC[C@H](C)OC(=O)COc1ccc(C(=O)[C@H](COC(C)(C)C)NC(=O)c2ccc(C(=N)NC(=O)OC(C)(C)C)cc2)cc1` the value was 85 to 87 °C; for `CC(=O)N(C)CCc1ccc(C(=O)O)cc1`, 149 to 151 °C; for `N#Cc1ccc(OCc2ccccc2)cc1O`, 130 °C.
`COc1ccc2c(c1)S(=O)c1nccnc1N2C` (centres undefined) registered a melting point of 229 to 231 °C.
As for `CC(=O)NC[C@H]1CN(c2ccc(N3CCSC3)c(F)c2)C(=O)O1`, the figure is 103 to 105 °C; as for `O=C(CCC1CCCC1)Nc1ccc(-n2nc(C(F)(F)F)cc2C(F)(F)F)cc1`, 130 to 132 °C.
For `CNS(=O)(=O)c1ccc(Nc2cc(-n3ccc(C(F)(F)F)n3)c3ccccc3n2)cc1` the value was 220 to 222 °C.
As for `Clc1ccc2c(c1)CCc1cccnc1C2=C1CCN(Cc2cccnc2)CC1`, the figure is 115 °C; as for `COc1ccc(CS(=O)(=O)c2ccc(S(N)(=O)=O)s2)cc1`, 198 to 203 °C.
